Measurements as given in patent US20090305954A1, “HISTIDINE-CONTAINING DIASTEREOMERIC PEPTIDES AND USES THEREOF” (Yeda Research and Development Co. Ltd., priority 2005, published 2009).
In brackets after ≈: the same amount, converted by molar mass. Read-outs that look alike come from different tables or passages of the source. Square brackets hold non-standard residues; d marks the D form. Peptide text beside a SMILES is read from it.

Experiments:
[1] = XTT proliferation (cytotoxicity) assay, normal fibroblasts; assay type: cell-based, mouse; conditions: mouse, NIH-3T3 normal mouse fibroblasts, read-out: Lethal Concentration (LC50)
Description: (§1) The CL1 human prostate carcinoma (PC) cell line is an androgen-independent (AI) subclone of LNCaP cell line, which was generated by culturing androgen-dependent (AD) LNCaP cells in charcoal-stripped, […], as described (Patel et al. 2000). 22RV1 human PC cells are AI sub-clones of the AD prostatic adenocarcinoma CWR22 xenograft (Sramkoski et al. 1999). CL1 and 22RV1 (ATCC, USA) were grown in RPMI-1640 supplemented with 10% FCS (Biological Industries, Beit Haemek, Israel). PC3 and DU145 are androgen-insensitive (AI) (non-responsive), invasive human prostate cancer cell lines. NIH-3T3 mouse fibroblast cell lines (ATCC, USA) were grown in DMEM supplemented with 10% BS. Murine Lewis lung carcinoma (LLC) cell lines were also grown in DMEM medium supplemented with 10% fetal calf serum and antibiotics under the same conditions as above.
(§2) The anticancer activity of the diastereomers 1, 5 and 11-16, 36-39, 42 and 44 was examined against human CL1 prostate cancer, murine LLC (Lewis lung carcinoma), DU 145 and PC3 cell lines. The cell selectivity of the diastereomeric peptides was also studied by examining their effect on NIH-3T3 normal mouse fibroblasts cell line.
(§3) A 96-well plate (Falcon) was used for the XTT proliferation assay. Cancer cells were grown for 24 hours (day 1) in RPMI-1640 medium ([…] cells/100 μl for LLC, CL1, 22RVI, DU 145 and PC3, respectively) supplemented with 10% fetal calf serum and antibiotics, at 37° C., in humidified atmosphere at 5% CO2 and 95% air, resulting in growth medium pH of 7.4. NIH-3T3 fibroblast cells (1×10^4 cells/100 μl) were grown in DMEM medium supplemented with 10% bovine calf serum and antibiotics under the same conditions as described above for the cancerous cells. Wells in the last two rows served as blanks (medium only, for measuring the background color of the medium) and 100% survival controls (cells and medium only without treatment), respectively.
(§4) In day 2, the peptides were dissolved in sterile PBS to a concentration of 200 μM (or 500 μM). The medium in the assay wells was replaced with 100 μl serum free medium. For the assays at pH 6, the medium was initially concentrated (×5 or ×10) and then diluted with double distilled water and addition of sodium carbonate. Before reaching the correct dilution, the medium was adjusted to pH 6 and then more water was added to reach the final dilution. The cells were grown in physiological pH, and the acidic pH was used only during the 24 hours incubation with the peptides. A sign for the correct acidity was a light yellow color of the medium. In line A of the plate, 160 μl of serum free medium was added, if the initial peptide concentration was 500 μM.
(§5) Peptide solutions, 100 μl (or 40 μl) were added to each assay well in line A, such that the final concentration of the peptide was […] and the volume 200 μl. The medium in the wells was mixed with multichannel pipette 5 times and 100 μl of it were transferred to the next row of wells (line B), to give a peptide concentration of 50 μM. The double dilution of the peptides continued downstream the plate in the same manner. The plates were then incubated for 24 h.
(§6) In day 3, XTT reaction solution was prepared by adding to 100 μl aliquots of activation solution (sodium 3′-[1-(phenyl-aminocarbonyl)-3,4-tetrazolium]-bis(4-methoxy-6-nitro) benzene sulfonic acid hydrate and N-methyl dibenzopyrazine methyl sulfate; mixed in a proportion of 50:1) (protected from light and kept in −20° C.), the substrate. 50 μl of XTT reaction solution were added to each well and the plates were incubated for 2 hours (37° C. and 5% CO2+95% air. In cases the incubation was not enough for the creation of the color, it was extended for up to 24 hours). The optical density was read at wavelength of 450 nm in an ELISA plate reader. Cell viability was determined relative to the control and final results were recorded. The results were confirmed using replications in at least three independent experiments. […]

22RV1 human PC cells = assay: XTT proliferation (cytotoxicity) assay, 22RV1; assay type: cell-based
Description: as §1, §3, §4, §5
In day 3, XTT reaction solution was prepared by adding to 100 μl aliquots of activation solution (sodium 3′-[1-(phenyl-aminocarbonyl)-3,4-tetrazolium]-bis(4-methoxy-6-nitro) benzene sulfonic acid hydrate and N-methyl dibenzopyrazine methyl sulfate; mixed in a proportion of 50:1) (protected from light and kept in −20° C.), the substrate. 50 μl of XTT reaction solution were added to each well and the plates were incubated for 2 hours (37° C. and 5% CO2+95% air. In cases the incubation was not enough for the creation of the color, it was extended for up to 24 hours). The optical density was read at wavelength of 450 nm in an ELISA plate reader. Cell viability was determined relative to the control and final results were recorded. The results were confirmed using replications in at least three independent experiments. The LC50 for each peptide was obtained from the curve of cell viability versus concentration of peptide and taken from the concentration at which cell viability was 50%. The data shown in Table 1 are for only one experiment, but representative of all replications.

[2] = test system: Murine Lewis lung carcinoma (LLC) cell line; assay: XTT proliferation (cytotoxicity) assay, LLC; assay type: cell-based
Description: as §1, §2, §3, §4, §5, §6

[3] = test system: PC3 human prostate cancer cell line; assay: XTT proliferation (cytotoxicity) assay, PC3; assay type: cell-based; conditions: PC3, pH 7.4, 24 h
Description: as §1, §2
A 96-well plate (Falcon) was used for the XTT proliferation assay. Cancer cells were grown for 24 hours (day 1) in RPMI-1640 medium (5×10^3, 7×10^3, 1×10^4 and 7×10^3 cells/100 μl for LLC, CL1, 22RVI, DU 145 and PC3, respectively) supplemented with 10% fetal calf serum and antibiotics, at 37° C., in humidified atmosphere at 5% CO2 and 95% air, resulting in growth medium pH of 7.4. […]
In day 3, XTT reaction solution was prepared by adding to 100 μl aliquots of activation solution (sodium 3′-[1-(phenyl-aminocarbonyl)-3,4-tetrazolium]-bis(4-methoxy-6-nitro) benzene sulfonic acid hydrate and N-methyl dibenzopyrazine methyl sulfate; mixed in a proportion of 50:1) (protected from light and kept in −20° C.), the substrate. […] The optical density was read at wavelength of 450 nm in an ELISA plate reader. Cell viability was determined relative to the control and final results were recorded. […]

[4] = test system: pepsin, trypsin, and elastase; assay: Resistance to proteolytic digestion (reverse-phase HPLC); assay type: in vitro ADME; conditions: after 2 hr, 140 μM peptide, 25 μM protease, 37° C.
Description: In order to reach their target, the diastereomers have to withstand proteolytic digestion of proteases, which may occur after their administration and during the time until they reach the target site. The susceptibility of the peptides 13 and 14 to proteolytic digestion by pepsin (from porcine stomach mucosa, Sigma), trypsin (from bovine pancreas, Sigma), and elastase (from human leukocytes, Sigma) was assessed by reverse-phase HPLC. As a negative control, the all L-amino acid analog peptides were used. Equal amounts of the peptides were dissolved in PBS (35 mM phosphate buffer/0.15 M NaCl, pH 7.3) at a final concentration of 140 μM, to which 25 μM of protease were added. […] After the addition of the appropriate protease inhibitor to stop the reaction, aliquots were injected to C18 column and the amounts of the intact peptides 13 and 14 and their all L analogs were evaluated using their absorbance at 215 nm.

## CC(C)C[C@H](NC(=O)[C@H](CC(C)C)NC(=O)[C@@H](CCCCN)NC(=O)[C@H](CC(C)C)NC(=O)[C@H](CC(C)C)NC(=O)[C@H](Cc1c[nH]cn1)NC(=O)[C@@H](CCCCN)NC(=O)[C@@H](CC(C)C)NC(=O)[C@H](CC(C)C)NC(=O)[C@@H](CCCCN)NC(=O)[C@H](Cc1c[nH]cn1)NC(=O)[C@H](CC(C)C)NC(=O)[C@@H](CC(C)C)NC(=O)[C@H](CCCCN)NC(=O)[C@@H](N)CC(C)C)C(N)=O [Peptide 13] (H-LK[dL]LH[dK]L[dL][dK]HLL[dK]LL-NH2)
[1]; NIH3T3, pH 6, 24 h
  CC50 at 24 h: 19 mg/L (≈ 10.4 µM)
[1]; NIH3T3, pH 7.4, 24 h
  CC50 at 24 h: 50 mg/L (≈ 27.4 µM)
22RV1 human PC cells; 22RV1, pH 6, 24 h
  Lethal Concentration (LC50): 12.5 mg/L
22RV1 human PC cells; 22RV1, pH 7.4, 24 h
  Lethal Concentration (LC50): 12.5 mg/L
[2]; pH 6, 24 h
  Lethal Concentration (LC50): 12.5 mg/L
[2]; pH 7.4, 24 h
  Lethal Concentration (LC50): 12.5 mg/L
[3]
  Lethal Concentration (LC50): 25 mg/L
[4]
  proteases digestion: ~50%
